The source made the active and inactive calls. The calls are words filed in the database; no cut-off is given here.
Experiments:
MGC-803 = test: Antiproliferative activity against human MGC803 cells after 48 hrs by MTT assay; assay type: functional, cell-based; conditions: MGC-803, 48 h
HepG2 [1] = test: cells; conditions: Homo sapiens, HepG2, 48 h
HeLa = test: cells; conditions: Homo sapiens, 48 h
HepG2 [2] = test: Downregulation of C-myc protein levels in human HepG2 cells after 48 hrs by Western blot analysis; assay type: functional, cell-based
HepG2 [3] = test: Downregulation of beta-Catenin protein levels in human HepG2 cells after 48 hrs by Western blot analysis; assay type: functional, cell-based
HepG2 [4] = test: Downregulation of cyclin D1 protein levels in human HepG2 cells after 48 hrs by Western blot analysis; assay type: functional, cell-based
HepG2 [5] = test: Downregulation of Ki67 protein levels in human HepG2 cells after 48 hrs by Western blot analysis; assay type: functional, cell-based
HepG2 [6] = test: Synergistic downregulation of C-myc protein levels in human HepG2 cells at 5 ug/ml after 48 hrs in presence of sorafenib by Western blot analysis; assay type: functional, cell-based
HepG2 [7] = test: Synergistic downregulation of beta-catenin protein levels in human HepG2 cells at 5 ug/ml after 48 hrs in presence of sorafenib by Western blot analysis; assay type: functional, cell-based
HepG2 [8] = test: Synergistic downregulation of cyclin D1 protein levels in human HepG2 cells at 5 ug/ml after 48 hrs in presence of sorafenib by Western blot analysis; assay type: functional, cell-based
HepG2 [9] = test: Synergistic downregulation of Ki67 protein levels in human HepG2 cells at 5 ug/ml after 48 hrs in presence of sorafenib by Western blot analysis; assay type: functional, cell-based
HepG2 [10] = test: Upregulation of vimentin protein levels in human HepG2 cells at 2.5 to 10 ug/ml after 48 hrs by Western blot analysis; assay type: functional, cell-based
HepG2 [11] = test: Synergistic upregulation of vementin protein levels in human HepG2 cells at 5 ug/ml after 48 hrs in presence of sorafenib by Western blot analysis; assay type: functional, cell-based
H22 [12] = test: Antitumor activity against mouse H22 cells implanted in mouse assessed as tumor growth inhibition at 100 mg/kg, ip or ig qd administered for 10 consecutive days measured after 24 hrs post last dose relative to control; assay type: functional; conditions: read-out: TGI
H22 [13] = test: Antitumor activity against mouse H22 cells implanted in mouse assessed as tumor growth inhibition at 50 mg/kg, ip or ig qd administered for 10 consecutive days measured after 24 hrs post last dose relative to control; assay type: functional; conditions: read-out: TGI
H22 [14] = test: Synergistic antitumor activity against mouse H22 cells implanted in mouse assessed as tumor growth inhibition at 50 mg/kg, ip or ig qd administered for 10 consecutive days measured after 24 hrs post last dose in presence of sorafenib relative to control; assay type: functional; conditions: read-out: TGI
HepG2 [15] = test: Cell cycle arrest in human HepG2 cells assessed as increase in accumulation of cells at G0/G1 phase at 4 ug/ml after 48 hrs by propidium iodide staining-based flow cytometric analysis; assay type: functional
HepG2 [16] = test: Cell cycle arrest in human HepG2 cells assessed as decrease in accumulation of cells at S phase at 4 ug/ml after 48 hrs by propidium iodide staining-based flow cytometric analysis; assay type: functional
HepG2 [17] = test: Upregulation of vimentin protein levels in human HepG2 cells at 4 ug/ml after 48 hrs by Western blot analysis; assay type: functional, cell-based
H22 [18] = test: Antitumor activity against mouse H22 cells implanted in mouse assessed as tumor growth inhibition at 50 mg/kg, ip qd administered for 10 consecutive days measured after 24 hrs post last dose relative to control; assay type: functional; conditions: read-out: TGI

| Structure (SMILES) | IC50 (MGC-803) | IC50 (HepG2 [1]) | IC50 (HeLa) | also measured |
| --- | --- | --- | --- | --- |
| COc1cc(NC(=O)Nc2ccc(C)cc2)c2c(c1OC(=O)Nc1ccc(C)cc1)-c1c(OC)c(OC)cc3c1[C@H](C2)N(C)CC3 | 25.6 µM | 16.1 µM | 19.1 µM | – |
| COc1cc(NC(=O)c2cccnc2)c2c(c1O)-c1c(OC)c(OC)cc3c1[C@H](C2)N(C)CC3 | 34.7 µM | 69.8 µM | 49.6 µM | – |
| COc1cc2c3c(c1O)-c1c(ccc(O)c1OC)C[C@@H]3N(C)CC2 | 124 µM | 154 µM | 109 µM | – |
| COc1cc(NC(=O)Nc2ccc(C(F)(F)F)cc2)c2c(c1OC(=O)Nc1ccc(C(F)(F)F)cc1)-c1c(OC)c(OC)cc3c1[C@H](C2)N(C)CC3 | 39.3 µM | 44.1 µM | 47.7 µM | – |
| COC1=CC(=O)c2cc3c4c(cc(OC)c(OC)c4c2C1=O)CCN3C | 49.6 µM | 40 µM | 31.3 µM | – |
| COc1cc(NC(=O)Nc2ccccc2C)c2c(c1OC(=O)Nc1ccccc1C)-c1c(OC)c(OC)cc3c1[C@H](C2)N(C)CC3 | 22.8 µM | 31.4 µM | 43.9 µM | – |
| COc1cc2c3c(c1O)-c1c(ccc(OC)c1OC)C[C@@H]3N(C)CC2 [CORYDINE] | > 200 µM | > 200 µM | > 200 µM | – |
| COc1ccc2c(c1O)-c1c(OC)c(OC)cc3c1[C@H](C2)N(C)CC3 [ISOCORYDINE] | > 200 µM | > 200 µM | > 200 µM | – |
| COc1cc(NC(=O)c2cc(Cc3n[nH]c(=O)c4ccccc34)ccc2F)c2c(c1O)-c1c(OC)c(OC)cc3c1[C@H](C2)N(C)CC3 | 27.2 µM | 30.2 µM | 29.6 µM | – |
| CNC(=O)c1cc(Oc2ccc(NC(=O)Nc3ccc(Cl)c(C(F)(F)F)c3)cc2)ccn1 [SORAFENIB] | – | – | – | Activity (HepG2 [15]): Active; Activity (HepG2 [16]): Active; Activity (HepG2 [2]): Dose-dependent effect; Activity (HepG2 [3]): Dose-dependent effect; Activity (HepG2 [4]): Dose-dependent effect; Activity (HepG2 [5]): Dose-dependent effect; Activity (HepG2 [17]): Active; inhibition in vivo at 50 mg/kg (H22 [18]): 55.8 to 56.5% |
| COc1cc(NC(=O)Nc2ccc(F)cc2)c2c(c1OC(=O)Nc1ccc(F)cc1)-c1c(OC)c(OC)cc3c1[C@H](C2)N(C)CC3 | 25.1 µM | 26.7 µM | 26.8 µM | – |
| COc1ccc2c(c1O)-c1c(O)c(OC)cc3c1[C@H](C2)N(C)CC3 [CORYTUBERINE] | > 200 µM | > 200 µM | > 200 µM | – |
| COc1cc(N)c2c(c1O)-c1c(OC)c(OC)cc3c1[C@H](C2)N(C)CC3 | 62.1 µM | 51.1 µM | 44.1 µM | – |
| COc1cc(NC(=O)Nc2ccccc2Cl)c2c(c1OC(=O)Nc1ccccc1Cl)-c1c(OC)c(OC)cc3c1[C@H](C2)N(C)CC3 | 26.9 µM | 17.2 µM | 27.1 µM | – |

The next lines start with results.

| IC50 (MGC-803) | IC50 (HepG2 [1]) | IC50 (HeLa) | Structure (SMILES) | also measured |
| --- | --- | --- | --- | --- |
| 11.1 µM | 7.51 µM | 6.32 µM | COc1cc(NC(=O)Nc2ccc(N3CCC(CN)CC3)c(C(F)(F)F)c2)c2c(c1O)-c1c(OC)c(OC)cc3c1[C@H](C2)N(C)CC3 | Activity (HepG2 [2]): Dose-dependent effect; Activity (HepG2 [3]): Dose-dependent effect; Activity (HepG2 [4]): Dose-dependent effect; Activity (HepG2 [5]): Dose-dependent effect; Activity (HepG2 [6]): Active; Activity (HepG2 [7]): Active; Activity (HepG2 [8]): Active; Activity (HepG2 [9]): Active; Activity (HepG2 [10]): Active; Activity (HepG2 [11]): Active; inhibition in vivo at 100 mg/kg (H22 [12]): 73.8%; inhibition in vivo at 50 mg/kg (H22 [13]): 27.2%; inhibition in vivo at 50 mg/kg (H22 [14]): 66.5% |
| 20.4 µM | 20.7 µM | 32.5 µM | CCC(=O)NCC1CCN(c2ccc(NC(=O)Nc3cc(OC)c(O)c4c3C[C@H]3c5c(cc(OC)c(OC)c5-4)CCN3C)cc2C(F)(F)F)CC1 | – |
| 28.7 µM | 25.9 µM | 26.7 µM | COc1cc(NC(=O)Nc2ccc(N3CCC(NC(=O)OC(C)(C)C)CC3)c(C(F)(F)F)c2)c2c(c1O)-c1c(OC)c(OC)cc3c1[C@H](C2)N(C)CC3 | – |
| 56.6 µM | 75.4 µM | 62.1 µM | COc1cc(NC(=O)c2ccccc2O)c2c(c1O)-c1c(OC)c(OC)cc3c1[C@H](C2)N(C)CC3 | – |
| 32.3 µM | 28.6 µM | 33.7 µM | COc1cc(NC(=O)Nc2ccc(N3CCC(N)CC3)c(C(F)(F)F)c2)c2c(c1O)-c1c(OC)c(OC)cc3c1[C@H](C2)N(C)CC3 | – |
| 57.3 µM | 45.9 µM | 49 µM | COc1cc(NC(=O)Nc2ccc(C(F)(F)F)cc2)c2c(c1O)-c1c(OC)c(OC)cc3c1[C@H](C2)N(C)CC3 | – |
| 21.9 µM | 21.5 µM | 16.6 µM | COc1cc(NC(=O)c2ccc(Cl)c(C(F)(F)F)c2)c2c(c1O)-c1c(OC)c(OC)cc3c1[C@H](C2)N(C)CC3 | – |
| 35.2 µM | 36.7 µM | 36.9 µM | COc1cc(NC(=O)Nc2ccccc2Cl)c2c(c1O)-c1c(OC)c(OC)cc3c1[C@H](C2)N(C)CC3 | – |
| 47.8 µM | 53.2 µM | 46.6 µM | COc1cc(NC(=O)Nc2ccc(SC)cc2)c2c(c1O)-c1c(OC)c(OC)cc3c1[C@H](C2)N(C)CC3 | – |
| 37.9 µM | 63.4 µM | 74.5 µM | COc1cc(NC(=O)/C=C/c2ccccc2)c2c(c1O)-c1c(OC)c(OC)cc3c1[C@H](C2)N(C)CC3 | – |
| 23.2 µM | 18.9 µM | 22.1 µM | COc1cc(NC(=O)Nc2ccc(N3CCC(CNC(=O)OC(C)(C)C)CC3)c(C(F)(F)F)c2)c2c(c1O)-c1c(OC)c(OC)cc3c1[C@H](C2)N(C)CC3 | – |
| 32.5 µM | 28.5 µM | 33.4 µM | CCC(=O)NC1CCN(c2ccc(NC(=O)Nc3cc(OC)c(O)c4c3C[C@H]3c5c(cc(OC)c(OC)c5-4)CCN3C)cc2C(F)(F)F)CC1 | – |
| 30 µM | 28.4 µM | 21.7 µM | COc1cc(NC(=O)Nc2ccc(Cl)c(Cl)c2)c2c(c1O)-c1c(OC)c(OC)cc3c1[C@H](C2)N(C)CC3 | – |
